Reference: patent publication US7271260B2, “3,4-dihydroquinazoline derivatives as T-type calcium channel blockers and method of preparing the same” (Korea Institute of Science and Technology, priority 2004, dated 2007)

Target: T1, T-type calcium channel α1H (Cav3.2) (Homo sapiens, UniProt O95180)
T1 construct: expressed in transfected cells; host or cells: Xenopus laevis unfertilized oocytes injected with cRNA (pGEM-HEA linearised with AflII, T7 transcription)
Test: Two-electrode voltage clamp on Xenopus unfertilized oocytes expressing α1H T-type calcium channel
Type: cell-based
Conditions: test potential -20 mV from -90 mV, read-out: inhibitory effect (blocking percentage), Xenopus oocyte (α1H) at 100 μM
Description: In order to express a gene encoding T-type calcium channel α1H (Cav3.2) (Cribbs, L. L. et al., Circ. Res., 1998, 83, 103-109) in unfertilized Xenopus oocytes, pGEM-HEA was treated with restriction enzyme AflII to obtain a DNA fragment containing 5′-terminal region having the T-type calcium channel cDNA (AF051946). cRNA having a corresponding sequence to that of the fragment was synthesized using T7 RNA polymerase according to the manufacturer's instructions (mMESSAGE mMACHINE kit, Ambion, Austin, U.S.A.). The synthesized cRNA was quantified by measuring the O.D. value with a spectrophotometer. At this time, unfertilized oocytes were prepared from female Xenopus laevis (Xenopus I, U.S.A.) according to the following method. After the frog's abdomen was incised by about 1 cm, three to four lobes were detached therefrom with scissors and separated into small pieces to which several oocytes were attached. The small pieces were hydrolyzed in OR solution (82.5 mM NaCl, 2.5 mM KCl, 1 mM MgCl2, 5 mM HEPES, pH 7.6) and supplemented with collagenase type IA (Sigma, U.S.A.) to remove defolliculation. After selecting healthy oocytes with a dissecting microscope, they were soaked in SOS solution (100 mM NaCl, 2 mM KCl, 1.8 mM CaCl2, 1 mM MgCl2, 5 mM HEPES, 2.5 mM pyruvate, […] gentamicin, pH 7.6) for 3 to 4 hours to revitalize them. 2 to 5 ng of cRNA was injected into each oocyte using Nano-injector. The oocytes were subjected to a test in order to examine the electrical properties of the channel expressed therefrom 4 to 5 days after the injection while being maintained at 18° C.
The current of the calcium channel expressed from the Xenopus unfertilized oocytes was measured according to a two-electrode voltage clamping method. The current was measured in 10 mM Ba^2+ solution (10 mM Ba(OH)2, 90 mM NaOH, 1 mM KCl, 0.1 mM EDTA, 5 mM HEPES, pH was adjusted to 7.4 with methanesulfonic acid). At this time, the voltage clamp and current measurement were regulated with an amplifier for unfertilized oocytes (Model OC-725C, Warner Instrument Corp., U.S.A.), and analog signals were converted into digital signals using Digidata 2000A (Analog-Digital converter, Axon Instrument). The acquisition, storage and analysis of all data were recorded in Pentium IV computer via pCLAMP8. The data were mainly collected at 5 KHz and filtered at 1 KHz (Model 902 filter; Frequency devices located at Harverhill, Mass., U.S.A.). The T-type current was generated by imposing test electric potential of −20 mV every 15 seconds on the unfertilized oocytes, the potential of which was fixed at −90 mV. A blocking percentage was calculated by comparing the […] before and after the drug treatment.

T1 sequence (O95180 whole entry): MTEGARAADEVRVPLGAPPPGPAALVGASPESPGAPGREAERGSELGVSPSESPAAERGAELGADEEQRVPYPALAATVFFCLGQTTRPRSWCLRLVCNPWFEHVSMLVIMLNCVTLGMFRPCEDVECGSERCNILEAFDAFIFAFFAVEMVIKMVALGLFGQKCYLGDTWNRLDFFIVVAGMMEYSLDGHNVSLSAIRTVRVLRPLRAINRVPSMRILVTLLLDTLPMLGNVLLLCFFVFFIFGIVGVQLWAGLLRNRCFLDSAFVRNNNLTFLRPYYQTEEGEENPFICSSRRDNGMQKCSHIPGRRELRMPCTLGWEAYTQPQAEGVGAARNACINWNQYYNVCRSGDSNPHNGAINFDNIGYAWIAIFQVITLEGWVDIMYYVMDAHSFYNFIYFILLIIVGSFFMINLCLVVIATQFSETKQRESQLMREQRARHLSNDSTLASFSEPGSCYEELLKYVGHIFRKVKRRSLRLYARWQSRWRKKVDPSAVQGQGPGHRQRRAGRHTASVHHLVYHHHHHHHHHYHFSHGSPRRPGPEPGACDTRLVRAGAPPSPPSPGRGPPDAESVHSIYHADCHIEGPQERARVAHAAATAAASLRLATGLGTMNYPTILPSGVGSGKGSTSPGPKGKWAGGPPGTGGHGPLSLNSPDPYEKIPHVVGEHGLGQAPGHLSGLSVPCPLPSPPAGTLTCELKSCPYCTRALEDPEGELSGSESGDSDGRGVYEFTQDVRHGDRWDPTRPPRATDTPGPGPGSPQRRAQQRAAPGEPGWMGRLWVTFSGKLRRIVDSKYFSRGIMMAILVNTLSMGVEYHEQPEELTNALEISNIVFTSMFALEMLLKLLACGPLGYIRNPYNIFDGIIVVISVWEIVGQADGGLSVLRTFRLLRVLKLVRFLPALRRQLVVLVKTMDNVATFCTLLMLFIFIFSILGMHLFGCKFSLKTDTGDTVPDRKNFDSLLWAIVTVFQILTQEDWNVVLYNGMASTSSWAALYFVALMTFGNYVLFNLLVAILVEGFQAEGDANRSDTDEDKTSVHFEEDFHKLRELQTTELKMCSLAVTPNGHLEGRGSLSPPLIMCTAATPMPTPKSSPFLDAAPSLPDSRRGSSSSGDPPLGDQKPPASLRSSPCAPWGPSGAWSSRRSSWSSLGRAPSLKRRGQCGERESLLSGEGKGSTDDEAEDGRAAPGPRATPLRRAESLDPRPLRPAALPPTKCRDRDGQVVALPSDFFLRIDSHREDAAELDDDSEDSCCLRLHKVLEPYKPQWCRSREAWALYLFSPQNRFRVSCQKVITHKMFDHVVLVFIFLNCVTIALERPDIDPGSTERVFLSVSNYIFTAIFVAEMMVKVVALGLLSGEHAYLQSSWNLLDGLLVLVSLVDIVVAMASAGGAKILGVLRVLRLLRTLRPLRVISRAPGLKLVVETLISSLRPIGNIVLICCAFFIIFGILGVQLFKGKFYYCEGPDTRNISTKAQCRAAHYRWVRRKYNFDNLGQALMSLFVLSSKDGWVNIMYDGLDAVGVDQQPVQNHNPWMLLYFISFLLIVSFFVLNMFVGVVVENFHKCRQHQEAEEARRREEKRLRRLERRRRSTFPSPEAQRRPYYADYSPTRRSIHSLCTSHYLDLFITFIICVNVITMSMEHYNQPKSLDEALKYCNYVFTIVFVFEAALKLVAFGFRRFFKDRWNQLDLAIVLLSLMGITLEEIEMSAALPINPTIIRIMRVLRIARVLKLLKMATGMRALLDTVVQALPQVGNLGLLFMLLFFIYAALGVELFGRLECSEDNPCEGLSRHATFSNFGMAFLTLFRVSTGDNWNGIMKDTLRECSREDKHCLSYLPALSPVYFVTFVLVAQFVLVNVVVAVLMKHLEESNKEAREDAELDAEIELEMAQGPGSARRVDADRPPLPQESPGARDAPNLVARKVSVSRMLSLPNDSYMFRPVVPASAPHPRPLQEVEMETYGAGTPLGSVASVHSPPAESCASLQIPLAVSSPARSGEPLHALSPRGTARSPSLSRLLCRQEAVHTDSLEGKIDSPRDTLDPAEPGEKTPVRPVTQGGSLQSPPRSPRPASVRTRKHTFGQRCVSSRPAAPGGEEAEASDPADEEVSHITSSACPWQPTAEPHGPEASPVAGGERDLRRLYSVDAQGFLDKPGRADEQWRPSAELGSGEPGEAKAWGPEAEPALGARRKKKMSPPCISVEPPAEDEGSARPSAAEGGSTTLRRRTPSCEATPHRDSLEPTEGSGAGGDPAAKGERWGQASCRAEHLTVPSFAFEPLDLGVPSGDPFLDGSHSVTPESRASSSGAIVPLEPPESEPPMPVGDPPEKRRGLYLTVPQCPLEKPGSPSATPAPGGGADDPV

Cc1ccc(S(=O)(=O)Nc2ccc(CNC(=O)CC3c4ccccc4N=C(N4CCCCC4)N3c3ccccc3)cc2)cc1 (stereo not drawn) [KYS05041, 4-{N-[4-(4-methylbenzenesulfonylamido)benzyl]acetamido}-3-phenyl-2-(piperidine-1-yl)-3,4-dihydroquinazoline] gave an inhibition at 100 µM of 84.7%.

For O=C(CC1c2ccccc2N=C(N2CCCCC2)N1c1ccccc1)NCc1ccc(NS(=O)(=O)c2ccc(F)cc2)cc1 (stereo not drawn) [KYS05042, 4-{N-[4-(4-fluorobenzenesulfonylamido)benzyl]acetamido}-3-phenyl-2-(piperidine-1-yl)-3,4-dihydroquinazoline], the inhibition at 100 µM was 80.5%.

For O=C(CC1c2ccccc2N=C(N2CCCCC2)N1c1ccccc1)NCc1ccccc1 (stereo not drawn) [KYS05001], the inhibition at 100 µM was 77%.
